According to US5786348A, “Methods for preparation and use of 1α,24(S)-dihydroxy vitamin D2” (priority 1995, dated 1998):
“Also recorded” adds a separate entry of the source.

Legend:
bovine thymus VDR = biological target: T1, bovine thymus VDR (Bos taurus, UniProt Q28037); assay: Radioreceptor assay with bovine thymus VDR (Incstar), displacement of 3H-1α,25-(OH)2 D3; format: binding
T1 construct: commercially available kit of bovine thymus VDR; purchased Incstar (Stillwater, Minn.); host or cells: bovine thymus
T1 sequence (Q28037 1-426): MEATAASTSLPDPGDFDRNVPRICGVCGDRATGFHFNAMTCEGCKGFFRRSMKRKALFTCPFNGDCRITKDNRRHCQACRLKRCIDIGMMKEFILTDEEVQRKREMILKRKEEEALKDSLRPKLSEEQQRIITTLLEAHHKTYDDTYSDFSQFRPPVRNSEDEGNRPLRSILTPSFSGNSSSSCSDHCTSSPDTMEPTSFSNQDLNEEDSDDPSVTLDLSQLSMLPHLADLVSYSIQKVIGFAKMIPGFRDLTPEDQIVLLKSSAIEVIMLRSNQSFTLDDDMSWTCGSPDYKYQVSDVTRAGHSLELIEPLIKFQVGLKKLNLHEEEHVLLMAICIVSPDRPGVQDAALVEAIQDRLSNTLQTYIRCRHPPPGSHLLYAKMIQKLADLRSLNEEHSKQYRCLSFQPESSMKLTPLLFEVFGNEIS
Excerpt: Purified 1α,24(S)-(OH)2 D2 was quantitated by photodiode array spectrophotometry and assayed in the radioreceptor assay.
The purified 1α,24(R)-(OH)2 D2 and 1α,24(S)-(OH)2 D2 epimers were quantitated by ultraviolet spectroscopy. The concentration of 1α,24(R)-(OH)2 D2 required to produce the same displacement of ^3 H-1α,25-(OH)2 D3 tracer from the receptor was 20 to 30 times that required for 1α,24(S)-(OH)2 D2, as shown in FIG. 4.

[1] = Hypocalcemia and metabolic bone disease in chronic hemodialysis patients; format: in vivo, human; details: greater than 3.0 μg/day, twelve months
Procedure: A twelve-month, double-blind, placebo-controlled clinical trial is conducted with thirty men and women with renal disease who are undergoing chronic hemodialysis. […] Efficacy is evaluated by pre- and post-treatment comparisons of the two patient groups with regard to (a) direct measurements of intestinal calcium absorption, (b) total body calcium retention, (c) radial and spinal bone mineral density, or (d) determinations of serum calcium. Safety is evaluated by regular monitoring of serum calcium.

[2] = Dermatological testing: topical ointment in dermatitis patients; format: in vivo, human; details: ointment 10 μg per gram, twice daily, four to six weeks
Procedure: Compositions containing 1α,24(S)-dihydroxy vitamin D2 are evaluated for therapeutic efficacy of the composition in the topical treatment of dermatitis (contact and ectopic). The composition evaluated is an ointment containing 10 μg of 1α,24-dihydroxy vitamin D2 per gram of ointment in a petrolatum-almond oil base. […] The patients are treated in an out-patient clinic. They are instructed to use the preparation two times a day.
The ointment is as far as possible applied to a single lesion, or to an area of the disease. The ointment and its container are weighed before the treatment starts and returned with any unused contents for reweighing at the end of the treatment.
The area of the lesion treated is estimated and recorded, and the lesion is photographed as required, together with suitable "control" lesions. The latter are preferably lesions of similar size and stage of development, either in the vicinity of the treated lesion or symmetrically contralateral. Relevant details of the photographic procedure are recorded so as to be reproduced when the lesions are next photographed (distance, aperture, angle, background, etc.). The ointment is applied twice daily and preferably left uncovered. The "control" lesions are left untreated, but if this is not possible, the treatment used on them is noted. […]

Human keratinocytes = assay: Epidermal cell differentiation and proliferation testing; format: cell-based; details: 0.05 to 5 μg/ml; against ethanol control cultures
Procedure: Human keratinocytes are cultured according to known modifications of the system originally described by Rheinwald and Green (Cell, vol. 6, p. 331 (1975)). The 1α,24(S)-dihydroxy vitamin D2, dissolved in ethanol, is added to cells to yield a variety of concentrations between 0.05 and 5 μg/ml with the ethanol concentration not to exceed 0.5% v/v. Control cultures are supplemented with ethanol at a final concentration of 0.5% v/v.
Differentiation and proliferation of epidermal cells in culture is examined by:
1. quantitation of cornified envelopes;
2. quantitation of cell density of cells attached to disks;
3. monitoring transglutaminase activity; or
4. monitoring DNA synthesis by incorporation of ^3 H-thymidine.

HL-60 promyelocytes = assay: HL-60 cell differentiation assay; format: cell-based; details: dose-response; acid esterase, NBT reduction, thymidine incorporation
Procedure: A dose-response study is conducted with 1α,24(S)-(OH)2 D2 in the HL-60 cell differentiation assay as described by DeLuca and Ostrom (DeLuca, H. F. and ostrem, V. K., Prog. Clin. Biol. Res., vol. 259, pp. 41-55 (1988)). In this study, 1α,25-(OH)2 D3 is used as a positive control and appropriate solvents are used as negative controls. The following variables are evaluated: nonspecific acid esterase activity, nitroblue tetrazolium (NBT) reduction, and thymidine incorporation.

IC50 (bovine thymus VDR; bovine thymus VDR radioreceptor assay, read-out: Half-maximal binding (converted)): ~0.35 nM
Structure (SMILES): C=C1/C(=C\C=C2/CCC[C@]3(C)[C@@H]([C@H](C)/C=C/[C@@](C)(O)C(C)C)CC[C@@H]23)C[C@@H](O)C[C@@H]1O [1α,24(S)-(OH)2 D2, 1α,24(S)-dihydroxy vitamin D2]
Affinity for VDR relative to 1α,25-(OH)2 D3 (bovine thymus VDR; compared with 1α,25-(OH)2 D3): two-fold less competitive; also recorded: two-fold lower affinity
Incidence of hypercalcemia [1]: insignificant incidence
Intestinal calcium absorption (double-isotope technique) [1]: significantly increases
Radial and spinal bone densities relative to baseline [1]: stable
Serum calcium levels [1]: normalized
Total body calcium relative to baseline [1]: stable values
Incidence of hypercalcemia [2]: insignificant incidence
Lesion severity scores (erythema, scaling, thickness; 0 to 3) ([2]; against control lesions): lower scores than the control lesions
Cell density of attached cells (Human keratinocytes): fewer attached cells
Cornified envelopes (Human keratinocytes): more cornified envelopes
DNA synthesis (3H-thymidine incorporation) (Human keratinocytes): lower DNA synthesis
Transglutaminase activity (Human keratinocytes): higher transglutaminase activity
Promotion of differentiation of HL-60 promyelocytes to monocytes (HL-60 promyelocytes): potent activity
